Data from patent US4208420A, “New benzo [d] thiazole derivatives, process for their preparation and their therapeutic applications” (priority 1977, dated 1980).

Assays:
acute toxicity, in mice = format: in vivo; conditions: for LD50: mouse, in vivo, mice
Procedure: (§1) The test materials were administered as the hydrochlorides, either intraperitoneally (or intravenously, in the course of cardiovascular tests), or orally.
Acute toxicity, in mice, is low, both intraperitoneally and orally.

[1] = tested on: edema of the paw on subcutaneous carrageenin injection; test: inhibition of edema of the paw on subcutaneous carrageenin injection, in rats; format: in vivo; conditions: Rattus norvegicus, po, read-out: Anti-inflammatory action ED50 p.o.
Procedure: inhibition of edema of the paw on subcutaneous carrageenin injection, in rats; The test materials were administered as the hydrochlorides, either intraperitoneally (or intravenously, in the course of cardiovascular tests), or orally.

[2] = tested on: blood pressure, femoral rate of flow; test: cardiovascular action: blood pressure and femoral rate of flow, in dogs; format: in vivo; conditions: i.v.
Procedure: determination of the blood pressure, of the femoral rate of flow and of the heart rate, and research for an antagonism or a potentiation of the catecholamines (epinephrine norepinephrine) on said parameters, in dogs; The test materials were administered as the hydrochlorides, either intraperitoneally (or intravenously, in the course of cardiovascular tests), or orally.

[3] = tested on: reserpine-induced palpebral ptosis; test: antagonism of reserpine-induced palpebral ptosis, in rats; format: in vivo; conditions: Rattus norvegicus, po, as hydrochloride
Procedure: antagonism of reserpine-induced palpebral ptosis, in rats; The test materials were administered as the hydrochlorides, either intraperitoneally (or intravenously, in the course of cardiovascular tests), or orally.

isolated ear artery = test: action on the unstriated fibers of the isolated ear artery, in vitro; parameters: species or system rabbits; conditions: for Action on isolated arteries: at 2 × 10^-6 g/ml
From the text: (§2) research of an action on the unstriated fibers of the isolated saphena vein in dogs, and of the isolated ear artery of rabbits, in vitro.

isolated saphena vein = test: action on the unstriated fibers of the isolated saphena vein, in vitro; parameters: species or system dogs; conditions: for Action on isolated veins: at 2 × 10^-6 g/ml
From the text: as §2

[4] = tested on: gastric ulcers due to stress; test: inhibition of gastric ulcers due to stress, in rats; format: in vivo
[5] = tested on: pain, in mice placed on a heating plate; test: Eddy test: inhibition of pain, in mice placed on a heating plate; format: in vivo; conditions: Mus musculus, po, read-out: Analgesic action, Eddy test ED50 p.o.
Procedure: inhibition of pain, in mice placed on a heating plate (Eddy test) The test materials were administered as the hydrochlorides, either intraperitoneally (or intravenously, in the course of cardiovascular tests), or orally.

food intake = test: anorexiant effect (decreased food intake, in rats); format: in vivo; conditions: at 3 mg/kg, p.o.
Procedure: as §1
a central stimulant effect (increase of spontaneous motility, of amphetamine-induced stereotypes; of the antagonism of reserpine), sometimes accompanied by an anorexiant effect (decreased food intake, in rats);

[6] = tested on: pain contractions subsequent to intraperitoneal injection of 0.75% acetic acid; test: Koster test: antagonism to pain contractions after intraperitoneal acetic acid, in mice; format: in vivo; conditions: Mus musculus, po, read-out: Analgesic action, Koster test ED50 p.o.
Procedure: antagonism to the pain contractions subsequent to intraperitoneal injection of 0.75% acetic acid, in mice (Koster test) The test materials were administered as the hydrochlorides, either intraperitoneally (or intravenously, in the course of cardiovascular tests), or orally.

[7] = tested on: d-amphetamine-induced stereotypes; test: potentiation of d-amphetamine-induced stereotypes, in rats; format: in vivo; conditions: at 3 mg/kg, p.o.
Procedure: potentiation of d-amphetamine-induced stereotypes, in rats;
as §1

[8] = tested on: spontaneous motor activity; test: spontaneous motor activity, in mice; format: in vivo; conditions: at 3 mg/kg, p.o.
Procedure: determination of the spontaneous motor activity, in mice; The test materials were administered as the hydrochlorides, either intraperitoneally (or intravenously, in the course of cardiovascular tests), or orally.

hypoxic asphyxia = test: cerebral protecting effect against hypoxic asphyxia under a reduced oxygen pressure; format: in vivo

| SMILES | LD50 (acute toxicity, in mice; ip) | LD50 (acute toxicity, in mice; po) | ED50 [1] | Cardiovascular action: blood pressure ([2]; 0.5 mg/kg) | Cardiovascular action: blood pressure ([2]; 1-5 mg/kg) | inhibition at 10 mg/kg [3] | Action on isolated arteries (isolated ear artery) | Action on isolated veins (isolated saphena vein) | inhibiting effect on the development of gastric ulcers due to stress [4] | ED50 [5] | Anorexiant action (food intake) | ED50 [6] | toxicity at the active dosages (acute toxicity, in mice; at the active dosages) | Action on amphetamine-induced stereotypes [7] | Cardiovascular action: femoral rate of flow ([2]; 1-5 mg/kg) | Action on the isolated artery (isolated ear artery; concentration not given) | Action on spontaneous motility [8] | cerebral protecting effect against hypoxic asphyxia (hypoxic asphyxia) | Action on the isolated vein (isolated saphena vein; concentration not given) | Cardiovascular action: blood pressure ([2]; 1 mg/kg) |
| --- | --- | --- | --- | --- | --- | --- | --- | --- | --- | --- | --- | --- | --- | --- | --- | --- | --- | --- | --- | --- |
| NC1CCc2scnc2C1 (centres unmarked) [Example 7, 5-Amino-4,5,6,7-tetrahydro-benzo[d]thiazole] | > 200 mg/kg | > 200 mg/kg | – | – | – | – | – | – | – | – | – | – | – | – | – | – | – | – | – | – |
| Cc1nc2c(s1)CC(N)CC2.Cl (centres unmarked) [Example 1, 2-Methyl-6-amino-4,5,6,7-tetrahydro-benzo[d]thiazole hydrochloride] | < 100 mg/kg | > 200 mg/kg | 30 mg/kg | Hypotension | Hypertension | 40% | Contraction | Contraction | – | – | – | – | – | – | – | – | – | – | – | – |
| CNC1CCc2ncsc2C1.Cl (centres unmarked) [Example 3, 6-Methylamino-4,5,6,7-tetrahydro-benzo[d]thiazole hydrochloride] | > 200 mg/kg | > 200 mg/kg | < 30 mg/kg | – | Hypertension | – | – | – | potent inhibiting effect | ≤ 3 mg/kg | Anorexiant action | 5 mg/kg | does not exhibit noteworthy toxicity | Increase | substantial increase | 0 | Increase | marked cerebral protecting effect | Contraction | – |
| CNC1CCc2nc(C)sc2C1 (centres unmarked) [Example 2, 2-Methyl-6-methylamino-4,5,6,7-benzo[d]thiazole] | ≥ 100 mg/kg | > 200 mg/kg | ≤ 10 mg/kg | Hypotension | – | – | Contraction | Contraction | – | 3 mg/kg | anorexiant action | 30 mg/kg | – | Increase | – | – | – | – | – | Hypertension |
| CNC1CCCc2scnc21 (centres unmarked) [Example 4, 4-Methylamino-4,5,6,7-tetrahydro-benzo[d]thiazole] | > 200 mg/kg | > 200 mg/kg | – | – | – | – | – | – | – | – | – | – | – | – | – | – | – | – | – | – |
